Assay results reported in article PMC7156458, “Synthetic biology based construction of biological activity-related library of fungal decalin-containing diterpenoid pyrones” (Nature Communications, 2020).

Biological target: Aβ42 (Homo sapiens, UniProt P05067)
Assay: Th-T (thioflavin-T) assay of Aβ42 aggregation
Assay type: biochemical

Sequence of Aβ42 (P05067 672-713): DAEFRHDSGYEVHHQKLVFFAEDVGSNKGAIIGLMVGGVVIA

`C=C1CCC2C(C)(CCC=C(C)C)C(O)CCC2(C)C1Cc1c(OC)oc(CO)c(C)c1=O` (stereo not drawn) [Compound 12] was tested, and the “Fig. 7a Th-T reading, mean of three wells” value (from here on “Fig. 7a Th-T reading, mean”) (column suffix _20, reading M101) was 2.081, the “Fig. 7a Th-T reading, mean” value (column suffix _20, reading M102) was 2.083 and the “Fig. 7a Th-T reading, mean” value (column suffix _20, reading M103) was 2.082. The “Fig. 7a Th-T reading, mean” value (column suffix _20, reading M104) was 2.11, the “Fig. 7a Th-T reading, mean” value (column suffix _20, reading M105) was 2.097 and the “Fig. 7a Th-T reading, mean” value (column suffix _20, reading M106) was 2.107. The “Th-T fluorescence, mean of three wells (Fig. 7a)” value (“Th-T fluorescence … (Fig. 7a)” for short) (column suffix _50, measurement M19) was 1.719, the “Th-T fluorescence … (Fig. 7a)” value (column suffix _50, measurement M20) was 1.709 and the “Th-T fluorescence … (Fig. 7a)” value (column suffix _50, measurement M21) was 1.707. For the same compound, the “Th-T fluorescence … (Fig. 7a)” value (column suffix _50, measurement M22) was 1.694, the “Th-T fluorescence … (Fig. 7a)” value (column suffix _50, measurement M23) was 1.672 and the “Th-T fluorescence … (Fig. 7a)” value (column suffix _50, measurement M24) was 1.656. For the same compound, the “Th-T fluorescence … (Fig. 7a)” value (column suffix _50, measurement M25) was 1.634, the “Th-T fluorescence … (Fig. 7a)” value (column suffix _50, measurement M26) was 1.64 and the “Th-T fluorescence … (Fig. 7a)” value (column suffix _50, measurement M27) was 1.6183. The “Th-T fluorescence … (Fig. 7a)” value (column suffix _50, measurement M28) was 1.623, the “Th-T fluorescence … (Fig. 7a)” value (column suffix _50, measurement M29) was 1.606 and the “Th-T assay signal, mean of three wells (Fig. 7a)” value (“Th-T assay signal, mean” below) (column suffix _50, reading M1) was 1.526. The “Th-T assay signal, mean” value (column suffix _50, reading M2) was 1.765, the “Th-T assay signal, mean” value (column suffix _50, reading M3) was 2.409 and the “Th-T assay signal, mean” value (column suffix _50, reading M4) was 2.663. The “Th-T assay signal, mean” value (column suffix _50, reading M5) was 2.734, the “Th-T assay signal, mean” value (column suffix _50, reading M6) was 2.555 and the “Th-T assay signal, mean” value (column suffix _50, reading M7) was 2.454. For the same compound, the “Th-T assay signal, mean” value (column suffix _50, reading M8) was 2.181, the “Th-T assay signal, mean” value (column suffix _50, reading M9) was 2.034 and the “Th-T assay signal, mean” value (column suffix _50, reading M10) was 1.99. For the same compound, the “Th-T assay signal, mean” value (column suffix _50, reading M11) was 1.977, the “Th-T assay signal, mean” value (column suffix _50, reading M12) was 1.8801 and the “Th-T assay signal, mean” value (column suffix _50, reading M13) was 1.841. For the same compound, the “Th-T assay signal, mean” value (column suffix _50, reading M14) was 1.819, the “Th-T assay signal, mean” value (column suffix _50, reading M15) was 1.788 and the “Th-T assay signal, mean” value (column suffix _50, reading M16) was 1.774. The “Th-T assay signal, mean” value (column suffix _50, reading M17) was 1.76, the “Th-T assay signal, mean” value (column suffix _50, reading M18) was 1.746 and the “Fig. 7a Th-T reading, mean” value (column suffix _50, reading M85) was 1.4. For the same compound, the “Fig. 7a Th-T reading, mean” value (column suffix _50, reading M86) was 1.399, the “Fig. 7a Th-T reading, mean” value (column suffix _50, reading M87) was 1.399 and the “Fig. 7a Th-T reading, mean” value (column suffix _50, reading M88) was 1.392. For the same compound, the “Fig. 7a Th-T reading, mean” value (column suffix _50, reading M89) was 1.396, the “Fig. 7a Th-T reading, mean” value (column suffix _50, reading M90) was 1.401 and the “Fig. 7a Th-T reading, mean” value (column suffix _50, reading M91) was 1.4. The “Fig. 7a Th-T reading, mean” value (column suffix _50, reading M92) was 1.405, the “Fig. 7a Th-T reading, mean” value (column suffix _50, reading M93) was 1.424 and the “Fig. 7a Th-T reading, mean” value (column suffix _50, reading M94) was 1.4149. The “Fig. 7a Th-T reading, mean” value (column suffix _50, reading M95) was 1.419, the “Fig. 7a Th-T reading, mean” value (column suffix _50, reading M96) was 1.4015 and the “Fig. 7a Th-T reading, mean” value (column suffix _50, reading M97) was 1.401. For the same compound, the “Fig. 7a Th-T reading, mean” value (column suffix _50, reading M98) was 1.397, the “Fig. 7a Th-T reading, mean” value (column suffix _50, reading M99) was 1.397 and the “Fig. 7a Th-T reading, mean” value (column suffix _50, reading M100) was 1.41. The “Fig. 7a Th-T reading, mean” value (column suffix _50, reading M101) was 1.399, the “Fig. 7a Th-T reading, mean” value (column suffix _50, reading M102) was 1.3937 and the “Fig. 7a Th-T reading, mean” value (column suffix _50, reading M103) was 1.417. For the same compound, the “Fig. 7a Th-T reading, mean” value (column suffix _50, reading M104) was 1.419, the “Fig. 7a Th-T reading, mean” value (column suffix _50, reading M105) was 1.42 and the “Fig. 7a Th-T reading, mean” value (column suffix _50, reading M106) was 1.412. For the same compound, the “Th-T fluorescence, mean of three wells” value (compound at 10, reading M41 of time course) was 3.264, the “Th-T fluorescence, mean of three wells” value (compound at 10, reading M42 of time course) was 3.266 and the “Th-T fluorescence, mean of three wells” value (compound at 10, reading M43 of time course) was 3.271. For the same compound, the “Th-T fluorescence, mean of three wells” value (compound at 10, reading M44 of time course) was 3.34, the “Th-T fluorescence, mean of three wells” value (compound at 10, reading M45 of time course) was 3.373 and the “Th-T fluorescence, mean of three wells” value (compound at 10, reading M46 of time course) was 3.378. The “Th-T fluorescence, mean of three wells” value (compound at 10, reading M47 of time course) was 3.37, the “Th-T fluorescence, mean of three wells” value (compound at 10, reading M48 of time course) was 3.386 and the “Th-T fluorescence, mean of three wells” value (compound at 10, reading M49 of time course) was 3.382. The “Th-T fluorescence, mean of three wells” value (compound at 10, reading M50 of time course) was 3.418, the “Th-T fluorescence, mean of three wells” value (compound at 10, reading M51 of time course) was 3.408 and the “Th-T fluorescence, mean of three wells” value (compound at 10, reading M52 of time course) was 3.423. The “Th-T fluorescence, mean of three wells” value (compound at 10, reading M53 of time course) was 3.4353, the “Th-T fluorescence, mean of three wells” value (compound at 10, reading M54 of time course) was 3.443 and the “Th-T fluorescence, mean of three wells” value (compound at 10, reading M55 of time course) was 3.439. For the same compound, the “Th-T fluorescence, mean of three wells” value (compound at 10, reading M56 of time course) was 3.46, the “Th-T fluorescence, mean of three wells” value (compound at 10, reading M57 of time course) was 3.454 and the “Th-T fluorescence, mean of three wells” value (compound at 10, reading M58 of time course) was 3.457. For the same compound, the “Th-T fluorescence, mean of three wells” value (compound at 10, reading M59 of time course) was 3.451, the “Th-T fluorescence, mean of three wells” value (compound at 10, reading M60 of time course) was 3.452 and the “Th-T fluorescence, mean of three wells” value (compound at 10, reading M61 of time course) was 3.431. For the same compound, the “Th-T fluorescence, mean of three wells” value (compound at 10, reading M62 of time course) was 3.428, the “Th-T fluorescence, mean of three wells” value (compound at 20, reading M41 of time course) was 2.229 and the “Th-T fluorescence, mean of three wells” value (compound at 20, reading M42 of time course) was 2.216. The “Th-T fluorescence, mean of three wells” value (compound at 20, reading M43 of time course) was 2.22, the “Th-T fluorescence, mean of three wells” value (compound at 20, reading M44 of time course) was 2.199 and the “Th-T fluorescence, mean of three wells” value (compound at 20, reading M45 of time course) was 2.1759. The “Th-T fluorescence, mean of three wells” value (compound at 20, reading M46 of time course) was 2.17, the “Th-T fluorescence, mean of three wells” value (compound at 20, reading M47 of time course) was 2.178 and the “Th-T fluorescence, mean of three wells” value (compound at 20, reading M48 of time course) was 2.1654. For the same compound, the “Th-T fluorescence, mean of three wells” value (compound at 20, reading M49 of time course) was 2.1539, the “Th-T fluorescence, mean of three wells” value (compound at 20, reading M50 of time course) was 2.1392 and the “Th-T fluorescence, mean of three wells” value (compound at 20, reading M51 of time course) was 2.1473. The “Th-T fluorescence, mean of three wells” value (compound at 20, reading M52 of time course) was 2.131, the “Th-T fluorescence, mean of three wells” value (compound at 20, reading M53 of time course) was 2.116 and the “Th-T fluorescence, mean of three wells” value (compound at 20, reading M54 of time course) was 2.151. The “Th-T fluorescence, mean of three wells” value (compound at 20, reading M55 of time course) was 2.154, the “Th-T fluorescence, mean of three wells” value (compound at 20, reading M56 of time course) was 2.133 and the “Th-T fluorescence, mean of three wells” value (compound at 20, reading M57 of time course) was 2.135. The “Th-T fluorescence, mean of three wells” value (compound at 20, reading M58 of time course) was 2.143, the “Th-T fluorescence, mean of three wells” value (compound at 20, reading M59 of time course) was 2.117 and the “Th-T fluorescence, mean of three wells” value (compound at 20, reading M60 of time course) was 2.117. For the same compound, the “Th-T fluorescence, mean of three wells” value (compound at 20, reading M61 of time course) was 2.0819, the “Th-T fluorescence, mean of three wells” value (compound at 20, reading M62 of time course) was 2.098 and the “Th-T fluorescence, mean of three wells” value (compound at 50, reading M41 of time course) was 1.5174. For the same compound, the “Th-T fluorescence, mean of three wells” value (compound at 50, reading M42 of time course) was 1.513, the “Th-T fluorescence, mean of three wells” value (compound at 50, reading M43 of time course) was 1.502 and the “Th-T fluorescence, mean of three wells” value (compound at 50, reading M44 of time course) was 1.5. The “Th-T fluorescence, mean of three wells” value (compound at 50, reading M45 of time course) was 1.494, the “Th-T fluorescence, mean of three wells” value (compound at 50, reading M46 of time course) was 1.488 and the “Th-T fluorescence, mean of three wells” value (compound at 50, reading M47 of time course) was 1.489. The “Th-T fluorescence, mean of three wells” value (compound at 50, reading M48 of time course) was 1.494, the “Th-T fluorescence, mean of three wells” value (compound at 50, reading M49 of time course) was 1.481 and the “Th-T fluorescence, mean of three wells” value (compound at 50, reading M50 of time course) was 1.475. The “Th-T fluorescence, mean of three wells” value (compound at 50, reading M51 of time course) was 1.492, the “Th-T fluorescence, mean of three wells” value (compound at 50, reading M52 of time course) was 1.492 and the “Th-T fluorescence, mean of three wells” value (compound at 50, reading M53 of time course) was 1.469.
